Assay: in vitro
Settings: human, hela cells, % viability

Row | SMILES | viability at 28.5 h, 10 µM [%]
1 | NC(=O)c1ccccc1NC(=O)CSc1nc(N)cc(N)n1 [CBK267983] | 115
2 | CCCc1oc(C(=O)O)cc1CN1CCOCC1 [CBK267984C] | 106
3 | COc1ccc(S(=O)(=O)N2CCC(C(=O)Nc3cccc(F)c3)CC2)cc1C [CBK267987] | 92
4 | COc1ccccc1Oc1nnnn1-c1ccc(C(N)=O)cc1 [CBK267988] | 96
5 | CC(=O)N1CCN(Cc2nc3cc(NC(=O)Cn4nc(C)c5ccccc5c4=O)ccc3n2C)CC1 [CBK267989] | 87.8
6 | COc1ccc(C)cc1S(=O)(=O)N(CC(=O)Nc1ccccc1C)c1ccc(Cl)cc1 [CBK267995] | 90.1
7 | COc1cc(OC)cc(C(=O)OCc2ccc(F)cc2)c1 [CBK267996] | 95.6
8 | O=C(CC1C(=O)NCCN1C(=S)Nc1ccccc1)Nc1ccc2c(c1)OCCO2 (stereo not shown) [CBK267999] | 95.9
9 | CCC(NC(=O)Nc1ccccc1C(=O)O)(C(F)(F)F)C(F)(F)F [CBK268000] | 93.2
10 | COc1ccc(C(=O)Nc2ccccc2N2CCN(C)CC2)cc1Cl [CBK268001] | 90.5
11 | CC(Oc1ccc(-c2ccccc2)cc1)C(=O)Nc1ccc2c(c1)OCCO2 (stereo not shown) [CBK268002] | 92.3
12 | Cc1cc(SCC(=O)Nc2cccc3ccccc23)nc2c(C)cccc12 [CBK268005] | 92.2
13 | O=C(CSc1nnc(-c2ccco2)o1)Nc1cccc2nsnc12 [CBK268006] | 93.2
14 | O=C(O)C1CCCCC1C(=O)Nc1ccc(S(=O)(=O)N2CCOCC2)cc1 (stereo not shown) [CBK268010] | 104
15 | COCCCn1c(CCC(=O)O)ccc1-c1ccc(Br)cc1 [CBK268015] | 97.6
16 | Cc1cc(C)nc(Nc2n[nH]c(COc3ccccc3)n2)n1 [CBK268016] | 93.2
17 | O=C(Nc1ccc(S(=O)(=O)N2CCCCCC2)cc1)c1ccc(NS(=O)(=O)c2ccccc2)cc1 [CBK268018] | 90.4
18 | CC(NC(=O)Nc1ccccc1O)(C(F)(F)F)C(F)(F)F [CBK268019] | 101
19 | O=C(O)c1ccccc1-c1nc(-c2ccccc2F)no1 [CBK268022] | 100
20 | CC(Oc1cccc(Br)c1)C(=O)NCCC(=O)O (stereo not shown) [CBK268024] | 90.9
21 | O=C(Cn1nnc(-c2ccc3c(c2)OCO3)n1)Nc1ccccc1C(=O)O [CBK268025] | 101
22 | O=C(O)c1cccc(NC(=O)c2cc(-n3cnnc3)ccc2Cl)c1 [CBK268026] | 83

Row | SMILES | viability at 28.5 h, 10 µM [%]
23 | CCn1cc(C(=O)O)c(=O)c2cc(F)c(N3CCN(C(=S)Nc4ccc5c(c4)OCO5)CC3)cc21 [CBK268027] | 83.1
24 | CC(CNC(=O)C1CCCCC1C(=O)O)c1ccccc1 (stereo not shown) [CBK268028] | 97.1
25 | O=C(O)c1cccc(CSc2nnc(Cc3ccccc3)[nH]2)c1 [CBK268029] | 94.1
26 | CCNC(=O)N1C(CC(=O)OCC)C(=O)NC2CCCCC21 (stereo not shown) [CBK268030] | 116
27 | CC(=O)Nc1ccc(C(=O)CSc2nc(-c3ccccc3)cs2)cc1 [CBK268038] | 101
28 | Cc1nnc(Nc2ccc3c(c2)nc2n3CCN(C3CCCCC3)C2)c2ccccc12 [CBK268042] | 90.9
29 | Cc1nnc(SCC(=O)NCCc2ccccc2)nc1O [CBK268045] | 92
30 | Cc1cc(NC(=O)C(=O)NCCCN2CCOCC2)ccc1Br [CBK268046] | 94.7
31 | CCOc1cc(C)c(Cl)cc1S(=O)(=O)NCc1ccccn1 [CBK268047] | 108
32 | Cc1ccc(Cl)cc1N=C(N)N=C(N)N [CBK268049] | 98.8
33 | Cc1cc(=O)oc2cc(OC(C)C(=O)Nc3sc4c(c3C(N)=O)CCCC4)ccc12 (stereo not shown) [CBK268050] | 94.6
34 | O=c1[nH]c(/C=C/c2cc(Br)ccc2OCc2cccc3ccccc23)c([N+](=O)[O-])c(=O)[nH]1 [CBK268052] | 86.3
35 | N#Cc1c(NC(=O)Cn2cnc3sc(-c4ccccc4)cc3c2=O)sc2c1CCC2 [CBK268053] | 95.2
36 | Cc1ccc(C(=O)Nc2ccc(S(=O)(=O)N3CCCC3)cc2)cc1S(=O)(=O)Nc1ccccc1 [CBK268054] | 47.4
37 | O=C(O)c1ccc(-c2ccc(/C=C/c3[nH]c(=O)[nH]c(=O)c3[N+](=O)[O-])o2)cc1 [CBK268055] | 105
38 | Cc1[nH]c2ccccc2c1C(=O)CSc1n[nH]c(N)n1 [CBK268056] | 98.3
39 | O=C(CN1CCCC1=O)NC1(C(F)(F)F)NC(=O)N(c2ccc(F)cc2)C1=O (stereo not shown) [CBK268057] | 98.1
40 | O=C(CN1C(=O)C2CCC(c3ccccc3)CC2C1=O)Nc1cccc2ccccc12 (stereo not shown) [CBK268061] | 86
41 | CC1CCN(c2nnnc3c2sc2nc(N4CCOCC4)c4c(c23)CC(C)(C)SC4)CC1 [CBK268062] | 90.4
42 | COc1ccc(NC(=O)CSc2nc(N)n[nH]2)cc1Cl [CBK268065] | 108
43 | O=[N+]([O-])c1ccc(S(=O)(=O)NCCSCc2cccc(Cl)c2)cc1 [CBK268066] | 107
44 | Cc1cccc(NS(=O)(=O)c2ccc(OCC(=O)Nc3ccc4c(c3)OCCO4)cc2)c1 [CBK268068] | 111

Row | SMILES | viability at 28.5 h, 10 µM [%]
45 | CCC1CCCCN1S(=O)(=O)c1ccc(NC(=O)Cn2c(=O)oc3ccccc32)cc1 (stereo not shown) [CBK268069] | 89.2
46 | CNc1ccc(C(O)(C(F)(F)F)C(F)(F)F)cc1C(O)(C(F)(F)F)C(F)(F)F [CBK268070] | 96.6
47 | CN1CCN(c2ccccc2NC(=O)c2ccc3c(c2)OCCO3)CC1 [CBK268072] | 101
48 | O=[N+]([O-])c1ccc(N2CCNCC2)cc1NCc1ccccn1 [CBK268074] | 122
49 | Cc1cc(C(F)(F)F)nc(SCC(=O)N2c3ccccc3Sc3ccccc32)n1 [CBK268078] | 90.8
50 | CN1CCN(C(=O)CN(c2ccccc2)S(=O)(=O)N(C)C)CC1 [CBK268079] | 86.6
51 | CCOc1cc(C)c(C(C)C)cc1S(=O)(=O)NCc1ccccn1 [CBK268080] | 104
52 | O=C(O)c1cc(Nc2nc(N3CCOCC3)nc(N3CCOCC3)n2)ccc1Cl [CBK268081] | 97.5
53 | CCC(CO)NCc1ccc(-c2ccccc2)cc1 (stereo not shown) [CBK268082C] | 97.6
54 | c1cc(-c2nnn[nH]2)ccc1OCc1nnn[nH]1 [CBK268083] | 93.1
55 | Cc1nn2c(CN(C(=O)c3ccccc3)c3ccccc3)nnc2c2ccccc12 [CBK268084] | 87.7
56 | Cc1nnc(SCc2ccc(CSc3nnc(C)c(=O)[nH]3)cc2)[nH]c1=O [CBK268085] | 86.1
57 | Cc1cc(Br)ccc1NC(=O)CSc1nnc(-c2ccccc2O)n1-c1ccccc1 [CBK268086] | 90.7
58 | c1ccc2c(c1)nc1n2CN(Cc2ccc3c(c2)OCO3)CN1 [CBK268087] | 99.1
59 | CCc1ccc(C2=CC(c3cccc(C)c3)n3nnnc3N2)cc1 (stereo not shown) [CBK268095] | 88.6
60 | O=C(CSc1nnc(-c2ccccc2O)n1-c1ccccc1)N1CCc2ccccc21 [CBK268097] | 100
61 | O=C(CSc1nc2ccccc2c2nc3ccccc3n12)Nc1ccc(Cl)cc1F [CBK268098] | 115
62 | CC(=O)Nc1ccc(S(=O)(=O)NC2(C(F)(F)F)NC(=O)N(C3CCCC3)C2=O)cc1 (stereo not shown) [CBK268100] | 84.6
63 | COc1ccc(S(=O)(=O)N(C)CC(=O)N2CCN(C)CC2)cc1C [CBK268105] | 100
64 | O=C(O)c1ccc(NC(=O)c2cnccn2)cc1 [CBK268110] | 94
65 | Cc1cc(C)nc(NC(=O)C(C)Oc2ccc(Cl)cc2C)n1 (stereo not shown) [CBK268111] | 94.8
66 | Cc1scc(C(=O)NN2CCN(C)CC2)c1-c1ccccc1 [CBK268115] | 93

Row | SMILES | viability at 28.5 h, 10 µM [%]
67 | COC(=O)c1c(NC(=O)c2cc(C)on2)sc(C(=O)Nc2ccc(Cl)cc2)c1C [CBK268116] | 89.7
68 | COc1ccc2c(Cl)c(C(=O)NCCc3ccc(S(N)(=O)=O)cc3)sc2c1 [CBK268120] | 104
69 | COc1cccc(CN2CCN(C(=O)C3(C)CC3(Cl)Cl)CC2)c1 (stereo not shown) [CBK268121] | 96.7
70 | Cc1noc(C)c1C(=O)Nc1ccc(N2CCOCC2)c2nonc12 [CBK268125] | 94.7
71 | S=C(NCCN1CCCCC1)NCC1CCCO1 (stereo not shown) [CBK268129] | 107
72 | Cc1cc(C(=O)NCCc2ccc(S(N)(=O)=O)cc2)no1 [CBK268130] | 99.3
73 | Cc1cc(C(=O)N(Cc2ccccc2)c2ccccc2)no1 [CBK268131] | 94.2
74 | Cc1cc(OCC(=O)NN2CCN(C)CC2)ccc1[N+](=O)[O-] [CBK268136] | 99.8
75 | O=C(O)C1C2CCC(O2)C1C(=O)Nc1ccc(S(=O)(=O)N2CCc3ccccc32)cc1 (stereo not shown) [CBK268137] | 93.1
76 | COc1ccc(C(=O)Nc2ccc(S(=O)(=O)N3CCN(C)CC3)cc2)cc1[N+](=O)[O-] [CBK268140] | 97
77 | Cc1noc(C)c1C(=O)NCCc1ccc(S(N)(=O)=O)cc1 [CBK268143] | 104
78 | CCc1ccc(C(=O)NCCCN2CCOCC2)cc1 [CBK268144] | 104
79 | Cc1cc(C(=O)NCCCn2ccnc2)no1 [CBK268145] | 103
80 | COC(=O)c1sccc1NC(=O)Cc1ccccc1[N+](=O)[O-] [CBK268146] | 98.7
81 | Cc1ccc(OCC(=O)Nc2sc3c(c2C(N)=O)CCCCC3)c([N+](=O)[O-])c1 [CBK268148] | 101
82 | O=C(COc1ccccc1)Nc1ccc(N2CCOCC2)c2nonc12 [CBK268149] | 87.9
83 | CCC(Oc1cc(C)ccc1Cl)C(=O)Nc1sccc1C(N)=O (stereo not shown) [CBK268152] | 105
84 | Cc1occc1C(=O)NC(C)c1ccc2c(c1)OCO2 (stereo not shown) [CBK268153] | 105
85 | O=C(O)COCC(=O)N1CCN(c2ccccc2Cl)CC1 [CBK268155] | 108
86 | COc1cc(NS(=O)(=O)c2ccc(NC(=O)c3cccnc3)cc2)ncn1 [CBK268156] | 93
87 | Cc1cc(NS(=O)(=O)c2ccc(NC(=S)NC3CCCCC3)cc2)no1 [CBK268157] | 91.3
88 | Cc1onc(-c2ccccc2)c1C(=O)Nc1cccc(S(=O)(=O)N2CCOCC2)c1 [CBK268159] | 101

Reference: paper PMC12040169 (PLOS Biology, 2025)
